As usually defined, the IC50 is the concentration needed to halve the response being measured. In general, ED50 refers to the dose that gives a 50% effect, or the effect in half of the subjects.

This is an account of results in patent publication US5668146A, “Symmetrical bis-heteroarylmethoxyphenyliminoxyalkyl carboxylates as inhibitors of leukotriene biosynthesis” (Abbott Laboratories, priority 1996, dated 1997).

Experiment [1] concerns leukotriene biosynthesis. The note with it: oral; Prasit, et al., 1991; cited from earlier work.
Experiment [2] relates to 5-Lipoxygenase From Stimulated LTB4 Formation in Human Polymorphonuclear Leukocytes. The experiment is described as follows: Inhibition of calcium ionophore-induced LTB4 formation in human polymorphonuclear leukocytes (PMNL). It is filed as cell-based. The settings on record: calcium ionophore 8.3 μM, 10 min at 37° C., 15 min preincubation. As for the experimental part: Inhibition of leukotriene biosynthesis was evaluated in an assay involving calcium ionophore-induced LTB4 expressed in human polymorphonuclear leukocytes (PMNL). Human PMNL isolated from heparinized (20 USP units/mL) venous blood (25 mL) obtained from healthy volunteers was layered over an equal volume of Ficoll-Hypaque Mono-Poly Resolving Medium (ICN Flow, Costa Mesa, Calif.) and centrifugated at 400×g for 40 minutes at 20° C. The PMNL was collected, erythrocytes lysed and washed 2× and suspended at 1.0×10^7 cells/mL in Earle's balanced salt solution with 17 mM Earle's HEPES. Aliquots of the cell suspension were preincubated with test compounds dissolved in DMSO (final concentration <2%) for 15 minutes and stimulated with calcium ionophore (final concentration 8.3 μM) for 10 minutes at 37° C. Incubations were stopped with the addition of two volumes of ice cold methanol followed by centrifuging the cell suspensions at 4° C. for 10 minutes at 450×g. The amount of LTB4 in the methanol extract was analyzed by enzyme-linked immunoassay or by HPLC analysis.

The subject of experiment [3] is leukotriene biosynthesis. In words: Ionophore A-23187-Induced Rat Pleural Inflammation Model (in vivo leukotriene inhibition). The settings on record: male rats, dosed one hour prior to intrapleural A23187 (20 μg), lavage after 30 min, eicosanoids by enzyme immunoassay. The method, then:
Inhibition of leukotriene biosynthesis in vivo was evaluated using the Ionophore A-23187-Induced Rat Plueral Inflammation Model. Pleural inflammation was induced in male rats following the method of Rao, et al. (Rao, T. S., Currie, J. L., Shaffer, A. F., Isakson, P. C., Evaluation of 5-lipoxygenase Inhibitors, Zileuton, A78773 and ICI D-2 138 in an Ionophore (A-23187) Induced Pleural Inflammation Model in the Rat, Life Sciences, 53, 147 (1993)). Rats were dosed with experimental compounds in 0.2% methocel one hour prior to the intrapleural injection of the calcium ionophore, A23187. The rats where lightly anaesthetized with Pentrane (Abbott Laboratories) and injected intrapleurally with 0.5 ml of 2% ethanol in injectable saline (Abbott Laboratories) containing 20 μg of A23187 (Cal BioChem-Novabiochem). Thirty minutes later the animals were euthanised and the pleural cavities lavaged with ice cold saline (Abbott Laboratories). The lavage fluid was then added to ice cold methanol (final methanol concentration 30%) to lyse cells and precipitate protein. Eicosanoids were determined by enzyme immunoassay by standard methods.

For `O=C(O)CSC(CCCc1ccc(Cl)cc1)c1ccc(OCc2ccc3ccccc3n2)cc1` (centres unmarked) [((4-(4-chlorophenyl)-1-(4-(2-quinolylmethoxy)phenyl)butyl)thio)acetic acid], the “orally active leukotriene biosynthesis inhibitor (in words)” value with leukotriene biosynthesis [1] was “orally active leukotriene biosynthesis inhibitor”.
`O=C(O)C=NOC(c1ccc(OCc2ccc3ccccc3n2)cc1)c1ccc(OCc2ccc3ccccc3n2)cc1` [Example 1, bis(4-(2-quinolylmethoxy)phenyl)methyliminoxyacetic acid]: the IC50 in experiment [2] stood at 0.068 µM.
For `CC(=NOC(c1ccc(OCc2ccc3ccccc3n2)cc1)c1ccc(OCc2ccc3ccccc3n2)cc1)C(=O)O` [Example 2, 2-(bis(4-(2-quinolylmethoxy)phenyl)methyliminoxy)propionic acid], the IC50 in experiment [2] was determined as 0.16 µM. In the experiment on leukotriene biosynthesis [3], the ED50 was 2 mg/kg.
In the case of `CC(=NOC(c1ccc(OCc2ccc3cc(F)ccc3n2)cc1)c1ccc(OCc2ccc3cc(F)ccc3n2)cc1)C(=O)O` [Example 6, 2-(bis(4-(6-fluoro-2-quinolylmethoxy)phenyl)methyliminoxy)propionic acid], the IC50 in experiment [2] amounted to 0.04 µM.
On to `CC(CCC(=O)O)=NOC(c1ccc(OCc2ccc3ccccc3n2)cc1)c1ccc(OCc2ccc3ccccc3n2)cc1` [Example 7, 4-(bis(4-(2-quinolylmethoxy)phenyl)methyliminoxy)pentanoic acid], for which the IC50 in experiment [2] worked out at 0.05 µM. The molecule also came in with a median effective dose (ED50) with leukotriene biosynthesis [3] of 1 mg/kg.
For `CC(/C=C/C(=O)O)=NOC(c1ccc(OCc2ccc3ccccc3n2)cc1)c1ccc(OCc2ccc3ccccc3n2)cc1` [Example 8], the IC50 in experiment [2] turned out to be 0.03 µM.
